{"source": "patent US11414424B2", "about": "“Cardiac sarcomere inhibitors” (Cytokinetics, Inc., priority 2018, dated 2022)"}
{"test_system": "bovine cardiac myofibrils", "assay": "Myofibril assay: PK/LDH-coupled steady-state ATPase activity of skinned bovine cardiac myofibrils", "format": "biochemical", "conditions": "Ca2+ activating to 75% of maximal rate", "procedure,_shortened": "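Steady-state ATPase of detergent-skinned bovine left-ventricular myofibrils (1 mg/mL), PK/LDH-coupled NADH read at 340 nm, in PIPES/MgCl2 buffer pH 6.8 with 50 μM ATP, 0.6 mM EGTA and CaCl2 set for 50% or 75% activation. Inhibition of activity measured.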", "units": {"CDMF75 IC15": "µM"}}
{"molecule": "CNC(=O)N1CC2(C1)C(=O)N(c1ccc(OC)cc1)CC(=O)N2Cc1ccc(C(F)(F)F)cc1", "note": "[Compound 145, 8-(4-methoxyphenyl)-N-methyl-6,9-dioxo-5-(4-(trifluoromethyl)benzyl)-2,5,8-triazaspiro[3.5]-nonane-2-carboxamide]", "CDMF75 IC15": 3.8}
{"molecule": "CNC(=O)N1CC2(C1)C(=O)N(c1ccc(C#N)cc1)CC(=O)N2Cc1ccc(C(F)(F)F)cc1", "note": "[Compound 146, 8-(4-cyanophenyl)-N-methyl-6,9-dioxo-5-(4-(trifluoromethyl)benzyl)-2,5,8-triazaspiro[3.5]-nonane-2-carboxamide]", "CDMF75 IC15": 1.2}
{"molecule": "CNC(=O)N1CC2(C1)C(=O)N(c1ccc(C#N)nc1)CC(=O)N2Cc1ccc(C(F)(F)F)cc1", "note": "[Compound 147, 8-(6-cyanopyridin-3-yl)-N-methyl-6,9-dioxo-5-(4-(trifluoromethyl)benzyl)-2,5,8-triazaspiro[3.5]-nonane-2-carboxamide]", "CDMF75 IC15": 8.1}
{"molecule": "CNC(=O)N1CC2(C1)C(=O)N(c1ccc(C(=O)OC)cc1)CC(=O)N2Cc1ccc(C(F)(F)F)cc1", "note": "[Compound 148, methyl 4-(2-(methylcarbamoyl)-6,9-dioxo-5-(4-(trifluoro-methyl)benzyl)-2,5,8-triazaspiro[3.5]nonan-8-yl)benzoate]", "CDMF75 IC15": 2.3}
{"molecule": "CNC(=O)N1CC2(C1)C(=O)N(c1ccc(F)cc1)CC(=O)N2Cc1ccc(C(F)(F)F)cc1", "note": "[Compound 149, 8-(4-fluorophenyl)-N-methyl-6,9-dioxo-5-(4-(trifluoromethyl)benzyl)-2,5,8-triazaspiro[3.5]-nonane-2-carboxamide]", "CDMF75 IC15": 8.9}
{"molecule": "CNC(=O)N1CC2(C1)C(=O)N(c1ccc(C(F)(F)F)cc1)CC(=O)N2Cc1ccc(C(F)(F)F)cc1", "note": "[Compound 151, N-methyl-6,9-dioxo-5-(4-(trifluoromethyl)benzyl)-8-(4-(trifluoromethyl)phenyl)-2,5,8-triazaspiro[3.5]nonane-2-carboxamide]", "CDMF75 IC15": 12.2}
{"molecule": "CNC(=O)N1CC2(C1)C(=O)N(c1ccc(F)c(F)c1)CC(=O)N2Cc1ccc(C(F)(F)F)cc1", "note": "[Compound 152, 8-(3,4-difluorophenyl)-N-methyl-6,9-dioxo-5-(4-(trifluoromethyl)benzyl)-2,5,8-triazaspiro[3.5]nonane-2-carboxamide]", "CDMF75 IC15": 2.8}
{"molecule": "CNC(=O)N1CC2(C1)C(=O)N(c1ccc(C)cc1)CC(=O)N2Cc1ccc(C(F)(F)F)cc1", "note": "[Compound 153, N-methyl-6,9-dioxo-8-(p-tolyl)-5-(4-(trifluoromethyl)benzyl)-2,5,8-triazaspiro[3.5]-nonane-2-carboxamide]", "CDMF75 IC15": 6.4}
{"molecule": "CNC(=O)N1CC2(C1)C(=O)N(c1ccc(OC)nc1)CC(=O)N2Cc1ccc(C(F)(F)F)cc1", "note": "[Compound 154, 8-(6-methoxypyridin-3-yl)-N-methyl-6,9-dioxo-5-(4-(trifluoromethyl)benzyl)-2,5,8-triazaspiro[3.5]-nonane-2-carboxamide]", "CDMF75 IC15": 19.8}
{"molecule": "CNC(=O)N1CC2(C1)C(=O)N(c1ccc(Cl)c(F)c1)CC(=O)N2Cc1ccc(C(F)(F)F)cc1", "note": "[Compound 155, 8-(4-chloro-3-fluorophenyl)-N-methyl-6,9-dioxo-5-(4-(trifluoromethyl)benzyl)-2,5,8-triazaspiro[3.5]-nonane-2-carboxamide]", "CDMF75 IC15": 0.6}
{"molecule": "CNC(=O)N1CC2(C1)C(=O)N(c1ccc(Cl)cn1)CC(=O)N2Cc1ccc(C(F)(F)F)cc1", "note": "[Compound 156, 8-(5-chloropyridin-2-yl)-N-methyl-6,9-dioxo-5-(4-(trifluoromethyl)benzyl)-2,5,8-triazaspiro[3.5]-nonane-2-carboxamide]", "CDMF75 IC15": 7.1}
{"molecule": "CNC(=O)N1CC2(C1)C(=O)N(c1ccc(C(F)F)cc1)CC(=O)N2Cc1ccc(C(F)(F)F)cc1", "note": "[Compound 157, 8-(4-(difluoromethyl)-phenyl)-N-methyl-6,9-dioxo-5(4-(trifluoromethyl)-benzyl)-2,5,8-triazaspiro-[3.5]nonane-2-carboxamide]", "CDMF75 IC15": 5.5}
{"molecule": "CNC(=O)N1CC2(C1)C(=O)N(c1ccc(C3CC3)cc1)CC(=O)N2Cc1ccc(C(F)(F)F)cc1", "note": "[Compound 158, 8-(4-cyclopropylphenyl)-N-methyl-6,9-dioxo-5-(4-(trifluoromethyl)benzyl)-2,5,8-triazaspiro[3.5]-nonane-2-carboxamide]", "CDMF75 IC15": 9.7}
{"molecule": "CNC(=O)N1CC2(C1)C(=O)N(c1ccc(OC(F)F)cc1)CC(=O)N2Cc1ccc(C(F)(F)F)cc1", "note": "[Compound 159, 8-(4-(difluoromethoxy)-phenyl)-N-methyl-6,9-dioxo-5-(4-(trifluoro-methyl)benzyl)-2,5,8-triazaspiro[3.5]nonane-2-carboxamide]", "CDMF75 IC15": 3.2}
{"molecule": "CNC(=O)N1CC2(C1)C(=O)N(c1ccc(OC(F)(F)F)cc1)CC(=O)N2Cc1ccc(C(F)(F)F)cc1", "note": "[Compound 160, N-methyl-6,9-dioxo-8-(4-(trifluoromethoxy)-phenyl)-5-(4-(trifluoromethyl)benzyl)-2,5,8-triazaspiro[3.5]-nonane-2-carboxamide]", "CDMF75 IC15": 7.1}
{"molecule": "C=C(C)c1ccc(N2CC(=O)N(Cc3ccc(C(F)(F)F)cc3)C3(CN(C(=O)NC)C3)C2=O)cc1", "note": "[Compound 161, N-methyl-6,9-dioxo-8-(4-(prop-1-en-2-yl)phenyl)-5-(4-(trifluoromethyl)benzyl)-2,5,8-triazaspiro[3.5]-nonane-2-carboxamide]", "CDMF75 IC15": 4.7}
{"molecule": "CNC(=O)N1CC2(C1)C(=O)N(c1ccc(C#N)c(F)c1)CC(=O)N2Cc1ccc(C(F)(F)F)cc1", "note": "[Compound 162, 8-(4-cyano-3-fluorophenyl)-N-methyl-6,9-dioxo-5-(4-(trifluoromethyl)benzyl)-2,5,8-triazaspiro[3.5]-nonane-2-carboxamide]", "CDMF75 IC15": 0.4}
{"molecule": "CNC(=O)N1CC2(C1)C(=O)N(c1cccc(Cl)c1)CC(=O)N2Cc1ccc(C(F)(F)F)cc1", "note": "[Compound 163, 8-(3-chlorophenyl)-N-methyl-6,9-dioxo-5-(4-(trifluoromethyl)benzyl)-2,5,8-triazaspiro[3.5]-nonane-2-carboxamide]", "CDMF75 IC15": 7.3}
{"molecule": "CNC(=O)N1CC2(C1)C(=O)N(c1ccc(C#N)cc1)CC(=O)N2Cc1ccc(Cl)cc1", "note": "[Compound 164, 5-(4-chlorobenzyl)-8-(4-cyanophenyl)-N-methyl-6,9-dioxo-2,5,8-triazaspiro-[3.5]nonane-2-carboxamide]", "CDMF75 IC15": 1.6}
{"molecule": "CNC(=O)N1CC2(C1)C(=O)N(c1ccc(-c3noc(C(F)F)n3)cc1)CC(=O)N2Cc1ccc(C(F)(F)F)cc1", "note": "[Compound 165, 8-(4-(5-(difluoromethyl)-1,2,4-oxadiazol-3-yl)-phenyl)-N-methyl-6,9-dioxo-5-(4-(trifluoromethyl)-benzyl)-2,5,8-triazaspiro-[3.5]nonane-2-carboxamide]", "CDMF75 IC15": 1.4}
{"molecule": "CNC(=O)N1CC2(C1)C(=O)N(c1ccc(Cl)c(C)c1)CC(=O)N2Cc1ccc(C(F)(F)F)cc1", "note": "[Compound 166, 8-(4-chloro-3-methyl-phenyl)-N-methyl-6,9-dioxo-5-(4-(trifluoromethyl)-benzyl)-2,5,8-triazaspiro-[3.5]nonane-2-carboxamide]", "CDMF75 IC15": 2.4}
{"molecule": "CNC(=O)N1CC2(C1)C(=O)N(c1ccc(C#N)c(C)c1)CC(=O)N2Cc1ccc(C(F)(F)F)cc1", "note": "[Compound 167, 8-(4-cyano-3-methyl-phenyl)-N-methyl-6,9-dioxo-5-(4-(trifluoromethyl)-benzyl)-2,5,8-triazaspiro-[3.5]nonane-2-carboxamide]", "CDMF75 IC15": 1.3}
{"molecule": "CNC(=O)N1CC2(C1)C(=O)N(c1ccc(Cl)cc1F)CC(=O)N2Cc1ccc(C(F)(F)F)cc1", "note": "[Compound 168, 8-(4-chloro-2-fluoro-phenyl)-N-methyl-6,9-dioxo-5-(4-(trifluoro-methyl)benzyl)-2,5,8-triazaspiro[3.5]nonane-2-carboxamide]", "CDMF75 IC15": 0.3}
{"molecule": "CNC(=O)N1CC2(C1)C(=O)N(c1ccc(C#N)cc1F)CC(=O)N2Cc1ccc(C(F)(F)F)cc1", "note": "[Compound 169, 8-(4-cyano-2-fluorophenyl)-N-methyl-6,9-dioxo-5-(4-(trifluoromethyl)benzyl)-2,5,8-triazaspiro[3.5]nonane-2-carboxamide]", "CDMF75 IC15": 0.2}
{"molecule": "CNC(=O)N1CC2(C1)C(=O)N(c1ccc(OC)c(F)c1)CC(=O)N2Cc1ccc(C(F)(F)F)cc1", "note": "[Compound 170, 8-(3-fluoro-4-methoxy-phenyl)-N-methyl-6,9-dioxo-5-(4-(trifluoromethyl)-benzyl)-2,5,8-triazaspiro-[3.5]nonane-2-carboxamide]", "CDMF75 IC15": 2.9}
{"molecule": "CNC(=O)N1CC2(C1)C(=O)N(c1ccc(OC(F)F)c(F)c1)CC(=O)N2Cc1ccc(C(F)(F)F)cc1", "note": "[Compound 171, 8-(4-(difluoromethoxy)-3-fluorophenyl)-N-methyl-6,9-dioxo-5-(4-(trifluoromethyl)benzyl)-2,5/8-triazaspiro[3.5]-nonane-2-carboxamide]", "CDMF75 IC15": 2.0}
{"molecule": "CNC(=O)N1CC2(C1)C(=O)N(c1ccc(C(=O)c3ccccc3)cc1)CC(=O)N2Cc1ccc(C(F)(F)F)cc1", "note": "[Compound 172, 8-(4-benzoylphenyl)-N-methyl-6,9-dioxo-5-(4-(trifluoromethyl)benzyl)-2,5,8-triazaspiro[3.5]-nonane-2-carboxamide]", "CDMF75 IC15": 18.5}
{"molecule": "CNC(=O)N1CC2(C1)C(=O)N(c1ccc(C#N)cc1F)CC(=O)N2Cc1ccc(C2(C(F)(F)F)N=N2)cc1", "note": "[Compound 173, 8-(4-cyano-2-fluorophenyl)-N-methyl-6,9-dioxo-5-(4-(3-(trifluoromethyl)-3H-diazirin-3-yl)benzyl)-2,5,8-triazaspiro[3.5]nonane-2-carboxamide]", "CDMF75 IC15": 0.6}
{"molecule": "CC(C)C(=O)N1CC2(C1)C(=O)N(c1ccc(C#N)cc1F)CC(=O)N2Cc1ccc(C(F)(F)F)cc1", "note": "[Compound 174, 3-fluoro-4-(2-isobutyryl-6,9-dioxo-5-(4-(trifluoromethyl)benzyl)-2,5,8-triazaspiro[3.5]nonan-8-yl)benzonitrile]", "CDMF75 IC15": 8.0}
{"molecule": "CC(=O)N1CC2(C1)C(=O)N(c1ccc(C#N)cc1F)CC(=O)N2Cc1ccc(Cl)cc1", "note": "[Compound 175, 4-(2-acetyl-5-(4-chlorobenzyl)-6,9-dioxo-2,5,8-triazaspiro[3.5]nonan-8-yl)-3-fluorobenzonitrile]", "CDMF75 IC15": 1.2}
